This passage reports IC50 results from patent publication US9168247B2, “Beta carboline derivatives useful in the treatment of proliferative disorders” (FACULTES UNIVERSITAIRES NOTRE DAME DE LA PAIX, priority 2010, dated 2015).

For one experiment, the target named is DYRK1A protein kinase (Homo sapiens (Human), UniProt Q13627). The experiment in a line: Radiometric protein kinase assay (33PanQinase Activity Assay). It counts as biochemical. Particulars: 10 concentrations in triplicate, 1 μM ATP; read-out: IC50: Concentration of drug (μM) needed in order to inhibit dyrk1A kinase activity by 50%. Here is the method:
The IC50 profile of JR212, JR220, JR84, CV12, CV24, and JR95 was determined on DYRK1A protein kinase. […] Compound cv12 was tested in the range from about 5×10^−5 M to about 1.5×10^−9 M in triplicate.
A radiometric protein kinase assay (33PanQinase® Activity Assay) was used for measuring the kinase activity of DYRK1A protein kinase. All kinase assays were performed in 96-well FlashPlates™ from Perkin Elmer (Boston, Mass., USA) in a 50 μl reaction volume. The reaction cocktail was pipetted in four steps in the following order: 20 μl of assay buffer (standard buffer); 5 μl of [γ-33P]-ATP solution (in H2O); 5 μl of test compound (in 10% DMSO); 10 μl of substrate/10 μl of enzyme solution (premixed).
The assay contained 60 mM HEPES-NaOH, pH 7.5, 3 mM MgCl2, 3 mM MnCl2, 3 μM Na-orthovanadate, 1.2 mM DTT, 50 μg/ml PEG20000, 1 μM [γ-^33P]-ATP (approx. 3×10^5 cpm per well), protein kinase, and substrate.
For the determination of inhibitory profiles, DYRK1A protein kinase was used, which was purchased from Invitrogen Corporation. The kinase was expressed in […] as human recombinant GST-fusion protein by means of the baculovirus expression system. According to the data sheet, the purity of the kinase was checked by SDS-PAGE/Coomassie staining and the identity of the kinase was verified by mass spectroscopy. About 5 ng/50 μl (about 0.9 nM) of dyrk1A kinase and about 2000 ng/50 μl of substrate (RBER-CHKtide) are used in each assay.
The reaction cocktails were incubated at 30° C. for 60 minutes. The reaction was stopped with 50 μl of 2% (v/v) H3PO4, plates were aspirated and washed two times with 200 μl 0.9% (w/v) NaCl. Incorporation of ^33P was determined with a microplate scintillation counter (Microbeta, Wallac).
All assays were performed with a BeckmanCoulter/SAGIAN™ Core System.
For each plate, the median value of the cpm of the wells with complete reaction cocktails, but without kinase or compound to be tested, was defined as “low control” (n=8). This value reflects unspecific binding of radioactivity to the plate in the absence of protein kinase but in the presence of the substrate. Additionally, for each plate the median value of the cpm of the wells with the complete reaction cocktail, but without any compound, was taken as the “high control”, i.e., full activity in the absence of any inhibitor (n=8). The difference between high and low control of was taken as 100% activity for each kinase. As part of the data evaluation the “low control” value from a particular plate was subtracted from the “high control” value as well as from all 80 “compound values” of the corresponding plate. The residual activity (in %) for each compound well was calculated by using the following formula: Res. Activity (%)=100×[(cpm of compound−low control)/(high control−low control)].

Another experiment concerns U373 glioma cells. The experiment in a line: MTT test, overall cell growth, U373. It counts as cell-based, human. Particulars: 72 hours of incubation. Put shortly:
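Glioma (Hs683, T98G, U373) and oesophageal (OE21, OE33) lines seeded at 5,000–8,000 cells/well, treated 24 h later with compound at 1×10^−8 to 1×10^−4 M for 72 h at 37 °C, in sestuplicate.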
In general terms: Tetrazolium dyes change colour on reduction, which living cells bring about.

The structures appear in SMILES notation.

As for `Cc1nccc2c3ccc(OCc4ccccc4)cc3n(Cc3ccccc3)c12` [CV9/JR84, 1-methyl-7-benzyloxy-9-benzyl-β-carboline], the IC50 at DYRK1A protein kinase amounted to 16.3 µM; with U373 glioma cells (Homo sapiens, U373 MG) it was 18 ± 2 µM.

On to `Cc1c2c(cc[n+]1Cc1ccccc1)c1ccc(OCc3ccccc3)cc1n2Cc1ccccc1.[Br-]` [CV21/JR95, 1-methyl-2-benzyl-7-benzyloxy-9-benzyl-β-carbolin-2-ium bromide], for which the IC50 on DYRK1A protein kinase worked out at 21.2 µM; with U373 glioma cells (Homo sapiens, U373 MG), 0.44 ± 0.01 µM.

In the case of `Cc1nccc2c1[nH]c1cc(OCc3cccnc3)ccc12` [JR212], the IC50 on DYRK1A protein kinase is 10 µM; in the experiment with U373 glioma cells it was 24 ± 1 µM.

For the compound `COCCOc1ccc2c(c1)[nH]c1c(C)nccc12` [JR220], the IC50 at DYRK1A protein kinase was 15.5 µM; with U373 glioma cells, 64 ± 4 µM.
